Results reported in patent US9155795B2, “CXCR4 receptor compounds” (Anchor Therapeutics, Inc., priority 2010, dated 2015).
Like-named read-outs stand apart in the source and are kept apart here. Where a SMILES comes first, the peptide text is derived from it. Where no end group is shown, it is not given here. [ ]: non-standard residue; d: D form. The star is where a group is joined. Palmitoyl = CCCCCCCCCCCCCCCC(=O)*; Dap = NC[C@H](N)C(=O)O

Tests used:
[1] = Pharmacokinetic analysis in mice (plasma, LC/MS); type: in vivo; conditions: for bioavailability / MRT inf / Tmax / half-life: male, mouse, in vivo, 2.5 umol/kg; for MRT inf / Tmax / half-life: sc
Method: To determine the pharmacokinetic profile of the CXCR4 modulators, compounds were administered as single subcutaneous injection to 6-8 week old male mice at doses of either […] (three or four mice/group). […] Dosing of 0.5 μmol/kg or 1 μmol/kg were used for intravenous dosing. […] Mice were sacrificed and blood samples collected at 15 minutes, 30 minutes, 1 hour, 2 hours, 4 hours, 8 hours, and 24 hours after dosing. The concentration of compound in plasma samples was analyzed by LC/MS according to the method below.
To this, 5 μL of the analyte compound in AcN:H2O:FA (70:30:1%) of 100 μM concentration was added to get 5 μM concentration.
Serial calibration standards in plasma or plasma samples were transferred to clean labeled tubes and mixed with 3 volumes of acetonitrile with internal standard, tolbutamide, in order to precipitate proteins. The mixtures were vortexed and centrifuged at 12000 RPM (15320 g) for 10 minutes. Supernatants were transferred to HPLC injection vials or 96-well plates and 5 μL were injected into the LC-MS/MS system.
Noncompartmental pharmacokinetic analyses were performed using WinNonlin Professional (version 5.2) software (Pharsight, Cary, N.C.). The data were analyzed using the extravascular input model. For each subject, pharmacokinetic parameters were calculated individually as follows and then averaged. The maximum drug concentration in plasma, Cmax, and Tmax, the time to achieve Cmax, were calculated directly from the concentration-time curves. The area under the plasma concentration-time curve from hour 0 to the last measurable concentration in plasma, AUClast, was estimated by the linear trapezoidal rule. The area under the plasma concentration-time curve from hour 0 to infinity estimated using the following formula: AUCinf—obs=AUClast+Ct/Lambda_z, where Ct is the last measurable concentration in plasma, and Lambda_z is the terminal elimination rate constant estimated using log-linear regression during the terminal elimination phase. The number of points used in Lambda_z calculation was determined by visual inspection of the data describing the terminal phase and evaluation of the correlation coefficient associated with the regression line. T1/2, the terminal elimination half-life=ln(2)/Lambda_z. Mean residence time MRT, was calculated as following: MRT=(AUMCinf/AUCinf). Subcutaneous absorption bioavailability was calculated as the AUCinf following subcutaneous dosing divided by the AUCinf following intravenous dosing. Results were expressed as percentages.

CXCR4 [2] = target: T1, CXCR4 (Homo sapiens, UniProt P61073); experiment: Calcium flux assay, agonist mode, Flexstation (CCRF-CEM cells); type: cell-based; conditions: CCRF-CEM, percent of maximum response compared with SDF-1α, read-out: % Intrinsic Activity
T1 construct: CCRF-CEM cells, a human T-cell ALL line that endogenously expresses CXCR4; endogenous in cells; host or cells: CCRF-CEM (human T-cell acute lymphoblastic leukemia line)

male BALB/c mice = experiment: Mobilization of polymorphonuclear leukocytes (PMNs) in mice; type: in vivo; conditions: for Lymphocytes (×10^3 μl) Mean ± SD / PMNs (×10^3 μl) Mean ± SD: blood 3 hours after injection
Method: The effect of Compound 26 on mobilization of PMNs following subcutaneous administration was evaluated in mice. […] Louis, Mo.) was administered subcutaneously to 10 mice. […] Neutrophil and lymphocyte counts were determined using a Hemavet Model 950FS cell counter (Drew Scientific, Dallas, Tex.).

CXCR4 [3] = target: T1, CXCR4; experiment: CXCR4 chemotaxis assay (Transwell, CCRF-CEM cells); type: cell-based; conditions: DMSO vehicle
Excerpt: Chemotaxis assays are utilized to determine the effect of compound on the directed migration of cells in response to chemokine. In general, cells that express a receptor of interest are placed in the upper chamber of a Transwell chemotaxis plate (Corning) and allowed to migrate through a polycarbonate membrane to a lower chamber containing the appropriate receptor-specific ligand. To test for antagonist or potentiating activity, cells are mixed with the desired concentration of compound prior to addition to the upper chamber. Conversely, agonist activity is determined by adding compound in the bottom chamber only without endogenous chemokine. The effect of compound is quantified by several parameters, including the extent of maximum response, the shift of agonist dose-response curves, and the area under the curve.
To measure the CXCR4 test compound elicited CXCR4-dependent migration of cells, the appropriate concentration of control agonist CXCL12 or test compound is diluted in phenol red-free RMPI-1640/20 mM HEPES/0.5% BSA buffer and placed in the bottom chamber of a transwell apparatus. CCRF-CEM cells, a human T-cell ALL line that endogenously expresses CXCR4, are washed twice in buffer and resuspended at 133,000 cells/ml. A 75 μl sample of the cell suspension is mixed with the test compound of interest and placed in the upper chamber of a 5-micron transwell apparatus.
To measure the effect of test compound on CXCL12 elicited CXCR4-dependent migration of cells, the appropriate concentration of CXCL12 is diluted in phenol red-free RMPI-1640/20 mM HEPES/0.5% BSA buffer and placed in the bottom chamber of a transwell apparatus. CCRF-CEM cells, a human T-cell ALL line that endogenously expresses CXCR4, are washed twice in buffer and resuspended at 133,000 cells/ml. A 75 μl sample of this suspension is mixed with the test compound of interest and placed in the upper chamber of a 5-micron transwell apparatus.
To initiate cell migration, the assembled transwell plate is placed in a 37° C., […] incubator for a specified time interval, typically between 30 and 120 minutes. After incubation, the unit is disassembled and the lower chamber placed at −80° C. overnight to facilitate lysis of cells. To quantify migrated cells, plates are thawed at 37° C. in a humidified chamber, and then a sample volume is removed from each well and mixed with an equal volume of CyQuant (Invitrogen) working solution in opaque plates. The fluorescence intensity of each well represents the DNA content and is directly proportional to cell number. Each sample is typically run in duplicate or triplicate and each plate include two separate negative controls. The plate background control, which includes no cells in the upper chamber, is subtracted from all values. […]

T1 sequence (P61073 whole entry): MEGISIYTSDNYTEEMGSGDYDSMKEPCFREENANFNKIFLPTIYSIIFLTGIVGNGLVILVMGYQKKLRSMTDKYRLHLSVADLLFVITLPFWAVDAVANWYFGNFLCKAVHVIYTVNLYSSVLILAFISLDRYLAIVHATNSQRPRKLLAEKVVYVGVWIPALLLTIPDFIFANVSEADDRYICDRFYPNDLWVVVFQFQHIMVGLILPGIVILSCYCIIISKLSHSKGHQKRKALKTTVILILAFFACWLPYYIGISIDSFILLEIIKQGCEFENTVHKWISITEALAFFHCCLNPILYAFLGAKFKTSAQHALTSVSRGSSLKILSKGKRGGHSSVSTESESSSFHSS

CCCCCCCCCCCCCCCC(=O)N[C@@H](CCSC)C(=O)NCC(=O)N[C@@H](Cc1ccc(O)cc1)C(=O)N[C@@H](CCC(N)=O)C(=O)N[C@@H](CCCCN)C(=O)N[C@@H](CCCCN)C(=O)N[C@@H](CC(C)C)C(=O)N[C@@H](CCCNC(=N)N)C(=O)N[C@@H](CO)C(=O)N[C@@H](CCSC)C(=O)N[C@H](C(=O)N[C@@H](CC(=O)O)C(=O)N[C@@H](CCCCN)C(=O)N[C@@H](Cc1ccc(O)cc1)C(=O)N[C@@H](CCCNC(=N)N)C(=O)N[C@@H](CC(C)C)C(N)=O)[C@@H](C)O [Compound 48] (Palmitoyl-MGYQKKLRSMTDKYRL-NH2)
bioavailability [1]: < 30% | MRT inf [1]: 2.6 h | Tmax [1]: 2 h | half-life [1]: 1.5 h

CCCCCCCCCCCCCCCC(=O)NCC(=O)NCC(=O)N[C@@H](Cc1ccc(O)cc1)C(=O)N[C@@H](CCC(N)=O)C(=O)N[C@@H](CCCCN)C(=O)N[C@@H](CCCCN)C(=O)N[C@@H](CC(C)C)C(=O)N[C@@H](CCCNC(=N)N)C(=O)N1CCC[C@@H]1C(=O)N[C@@H](Cc1c[nH]cn1)C(=O)N[C@H](C(=O)N[C@@H](CC(=O)O)C(=O)N[C@@H](CCCCN)C(=O)N[C@@H](Cc1ccc(O)cc1)C(=O)N[C@@H](CCCNC(=N)N)C(=O)N[C@@H](CC(C)C)C(N)=O)[C@@H](C)O [Compound 26] (Palmitoyl-GGYQKKLR[dP]HTDKYRL-NH2; C-terminus assumed)
bioavailability ([1]; mice, subcutaneous 2.5 μmol/kg, AUCinf subcutaneous divided by AUCinf intravenous, read-out: Bioavailability (%)): 88% | half-life ([1]; mice, single subcutaneous injection, 2.5 μmol/kg, read-out: Half-life elimination (converted)): 2.4 h | MRT inf ([1]; mice, single subcutaneous injection, 2.5 μmol/kg, read-out: MRT INFobs): 4.5 h | Tmax ([1]; mice, single subcutaneous injection, 2.5 μmol/kg, read-out: Tmax): 2 h | bioavailability following subcutaneous administration (comparison in words) ([1]; mice, subcutaneous): greater than that of compound 48 | Emax (CXCR4 [2]): 91.2% | Lymphocytes (×10^3 μl) Mean ± SD (male BALB/c mice; 0.2 μmol/kg subcutaneous): 4.39 ± 1.33 ×10^3 μl | PMNs (×10^3 μl) Mean ± SD (male BALB/c mice; 0.2 μmol/kg subcutaneous): 3.60 ± 1.89 ×10^3 μl | Lymphocytes (×10^3 μl) Mean ± SD (male BALB/c mice; 0.66 μmol/kg subcutaneous): 5.14 ± 2.22 ×10^3 μl | PMNs (×10^3 μl) Mean ± SD (male BALB/c mice; 0.66 μmol/kg subcutaneous): 5.03 ± 1.97 ×10^3 μl | Lymphocytes (×10^3 μl) Mean ± SD (male BALB/c mice; 2 μmol/kg subcutaneous): 4.15 ± 1.97 ×10^3 μl | PMNs (×10^3 μl) Mean ± SD (male BALB/c mice; 2 μmol/kg subcutaneous): 5.92 ± 1.73 ×10^3 μl | Lymphocytes (×10^3 μl) Mean ± SD (male BALB/c mice; 6.66 μmol/kg subcutaneous): 3.74 ± 2.12 ×10^3 μl | PMNs (×10^3 μl) Mean ± SD (male BALB/c mice; 6.66 μmol/kg subcutaneous): 7.11 ± 2.82 ×10^3 μl | release of bone marrow PMNs (in words) (male BALB/c mice; systemic, subcutaneous injection): acted as a functional antagonist to elicit release of bone marrow PMNs in a dose responsive fashion

c1cc(CN2CCCNCCNCCCNCC2)ccc1CN1CCCNCCNCCCNCC1 [AMD3100, reference compound]
Lymphocytes (×10^3 μl) Mean ± SD (male BALB/c mice; 6.66 μmol/kg subcutaneous): 8.76 ± 1.67 ×10^3 μl | PMNs (×10^3 μl) Mean ± SD (male BALB/c mice; 6.66 μmol/kg subcutaneous): 7.83 ± 3.20 ×10^3 μl

43: i3 loop peptide SKLSHSKGHQKRKALKTTVIL (SEQ ID NO: 39), lipid Pal (also: lipid Pal attached, position not given here) [Compound 43]
AUC (% of Vehicle) (CXCR4 [3]): 226.59 % of Vehicle | Max (% of Vehicle) (CXCR4 [3]): 202.16 % of Vehicle

44: i4 loop peptide GAKFKTSAQHALTSVR (SEQ ID NO: 40), lipid Pal (also: lipid Pal attached, position not given here) [Compound 44]
AUC (% of Vehicle) (CXCR4 [3]): 56.75 % of Vehicle | Max (% of Vehicle) (CXCR4 [3]): 56.7 % of Vehicle

CCCCCCCCCCCCCCCC(=O)NCC(=O)NCC(=O)N[C@@H](Cc1ccc(O)cc1)C(=O)N[C@@H](CCC(N)=O)C(=O)N[C@@H](CCCCN)C(=O)N[C@@H](CCCCN)C(=O)N[C@@H](CC(C)C)C(=O)N[C@@H](CCCNC(=N)N)C(=O)N1CCC[C@@H]1C(=O)N[C@@H](CN)C(=O)N[C@H](C(=O)N[C@@H](CC(=O)O)C(=O)N[C@@H](CCCCN)C(=O)N[C@@H](Cc1ccc(O)cc1)C(=O)N[C@@H](CCCNC(=N)N)C(=O)N[C@@H](CC(C)C)C(N)=O)[C@@H](C)O [Compound 34] (Palmitoyl-GGYQKKLR[dP][Dap]TDKYRL-NH2; C-terminus assumed)
Emax (CXCR4 [2]): 103%

CCCCCCCCCCCCCCCC(=O)N[C@@H](CCSC)C(=O)NCC(=O)N[C@@H](Cc1ccc(O)cc1)C(=O)N[C@@H](CCC(N)=O)C(=O)N[C@@H](CCCCN)C(=O)N[C@@H](CCCCN)C(=O)N[C@@H](CC(C)C)C(=O)N[C@@H](CCCNC(=N)N)C(=O)N[C@@H](CO)C(=O)NCC(=O)N[C@H](C(=O)N[C@@H](CC(=O)O)C(=O)N[C@@H](CCCCN)C(=O)N[C@@H](Cc1ccc(O)cc1)C(=O)N[C@@H](CCCNC(=N)N)C(=O)N[C@@H](CC(C)C)C(N)=O)[C@@H](C)O [Compound 19] (Palmitoyl-MGYQKKLRSGTDKYRL-NH2; C-terminus assumed)
Emax (CXCR4 [2]): 101%

CCCCCCCCCCCCCCCC(=O)NCC(=O)NCC(=O)N[C@@H](Cc1ccc(O)cc1)C(=O)N[C@@H](CCC(N)=O)C(=O)N[C@@H](CCCCN)C(=O)N[C@@H](CCCCN)C(=O)N1CCC[C@@H]1C(=O)N[C@@H](CCCNC(=N)N)C(=O)N1CCC[C@@H]1C(=O)N[C@@H](C)C(=O)N[C@H](C(=O)N[C@@H](CC(=O)O)C(=O)N[C@@H](CCCCN)C(=O)N[C@@H](Cc1ccc(O)cc1)C(=O)N[C@@H](CCCNC(=N)N)C(=O)N[C@@H](CC(C)C)C(N)=O)[C@@H](C)O [Compound 28] (Palmitoyl-GGYQKK[dP]R[dP]ATDKYRL-NH2; C-terminus assumed)
Emax (CXCR4 [2]): 107%
